Test results as given in ChEMBL document CHEMBL6182948 (J Med Chem, 2025).

How the values were obtained:
Cytochrome P450 1A1 = biological target: T1, Cytochrome P450 1A1 (Homo sapiens, UniProt P04798); assay: Inhibition of human recombinant CYP1A1 using 7-ethoxyresorufin as substrate incubated under dark condition for 15 mins in presence of NADPH by EROD fluorescence assay; type: ADME
T1 sequence (P04798 whole entry): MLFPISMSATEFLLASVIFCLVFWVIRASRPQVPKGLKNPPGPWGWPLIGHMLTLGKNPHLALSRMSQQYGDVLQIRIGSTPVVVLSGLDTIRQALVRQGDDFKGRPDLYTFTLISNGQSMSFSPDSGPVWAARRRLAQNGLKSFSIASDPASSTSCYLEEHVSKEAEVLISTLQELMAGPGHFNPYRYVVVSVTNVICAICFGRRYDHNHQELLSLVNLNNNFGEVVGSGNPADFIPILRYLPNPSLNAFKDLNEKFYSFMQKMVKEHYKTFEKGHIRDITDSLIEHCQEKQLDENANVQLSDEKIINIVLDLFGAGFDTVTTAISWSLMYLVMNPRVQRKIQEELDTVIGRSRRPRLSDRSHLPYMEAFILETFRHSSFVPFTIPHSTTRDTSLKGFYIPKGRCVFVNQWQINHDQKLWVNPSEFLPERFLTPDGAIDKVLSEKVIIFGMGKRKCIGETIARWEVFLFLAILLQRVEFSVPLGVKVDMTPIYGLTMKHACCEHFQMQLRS

Cytochrome P450 1B1 = biological target: T2, Cytochrome P450 1B1 (Homo sapiens, UniProt Q16678); assay: Inhibition of human recombinant CYP1B1 using 7-ethoxyresorufin as substrate incubated under dark condition for 30 mins in presence of NADPH by EROD fluorescence assay; type: ADME
T2 sequence (Q16678 whole entry): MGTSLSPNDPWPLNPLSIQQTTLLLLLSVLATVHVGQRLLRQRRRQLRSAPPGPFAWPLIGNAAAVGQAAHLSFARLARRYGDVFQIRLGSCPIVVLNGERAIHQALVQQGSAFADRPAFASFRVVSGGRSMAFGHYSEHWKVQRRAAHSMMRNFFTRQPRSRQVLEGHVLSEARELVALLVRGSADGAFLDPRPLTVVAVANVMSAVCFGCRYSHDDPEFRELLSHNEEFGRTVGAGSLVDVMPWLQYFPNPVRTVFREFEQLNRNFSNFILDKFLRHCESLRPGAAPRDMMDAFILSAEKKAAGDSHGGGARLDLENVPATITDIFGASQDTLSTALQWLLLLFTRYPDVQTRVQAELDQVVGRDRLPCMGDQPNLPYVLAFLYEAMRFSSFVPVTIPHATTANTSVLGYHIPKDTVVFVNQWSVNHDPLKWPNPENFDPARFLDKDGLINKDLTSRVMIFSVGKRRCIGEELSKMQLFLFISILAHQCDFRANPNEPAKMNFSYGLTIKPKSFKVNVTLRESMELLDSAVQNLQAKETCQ

Homo sapiens [1] = species: Homo sapiens; assay: Selectivity index, ratio of IC50 for human recombinant CYP1A2 to IC50 for human recombinant CYP1B1 using 7-ethoxyresorufin as substrate
Homo sapiens [2] = species: Homo sapiens; assay: Selectivity index, ratio of IC50 for human recombinant CYP1A1 to IC50 for human recombinant CYP1B1 using 7-ethoxyresorufin as substrate
Cytochrome P450 1A2 = biological target: T3, Cytochrome P450 1A2 (Homo sapiens, UniProt P05177); assay: Inhibition of human recombinant CYP1A2 using 7-ethoxyresorufin as substrate incubated under dark condition for 45 mins in presence of NADPH by EROD fluorescence assay; type: ADME
T3 sequence (P05177 whole entry): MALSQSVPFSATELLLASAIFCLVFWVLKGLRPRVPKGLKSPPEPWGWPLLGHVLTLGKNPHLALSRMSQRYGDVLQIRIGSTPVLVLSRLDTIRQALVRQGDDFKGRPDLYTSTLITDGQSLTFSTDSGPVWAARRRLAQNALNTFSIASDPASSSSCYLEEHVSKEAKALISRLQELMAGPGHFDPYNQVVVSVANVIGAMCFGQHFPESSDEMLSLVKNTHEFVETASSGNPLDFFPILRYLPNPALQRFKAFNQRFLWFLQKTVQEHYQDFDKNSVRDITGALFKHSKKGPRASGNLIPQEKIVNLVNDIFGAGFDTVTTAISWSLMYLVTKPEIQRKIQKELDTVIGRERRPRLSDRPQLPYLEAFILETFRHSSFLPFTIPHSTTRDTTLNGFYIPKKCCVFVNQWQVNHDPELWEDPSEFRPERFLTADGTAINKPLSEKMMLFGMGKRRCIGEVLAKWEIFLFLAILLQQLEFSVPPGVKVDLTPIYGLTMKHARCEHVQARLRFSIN

| Structure (SMILES) | IC50 (Cytochrome P450 1A1) [nM] | IC50 (Cytochrome P450 1B1) [nM] | Ratio IC50 (Homo sapiens [1]) | Ratio IC50 (Homo sapiens [2]) | IC50 (Cytochrome P450 1A2) [nM] |
| --- | --- | --- | --- | --- | --- |
| Cc1sc(C(=O)Nc2ccc(C(F)(F)F)cc2)nc1-c1cccc(Cl)c1 | 135 | 1.88 | > 5320 | 71.8 | > 10000 |
| O=C(Nc1cc(Cl)cc(Cl)c1)c1nc(-c2ccc(F)cc2)c(-c2ccccc2)s1 | 121 | 1070 | > 93.7 | 0.1 | > 100000 |
| Cc1sc(C(=O)Nc2ccc(OC(F)F)cc2)nc1-c1cccc(Cl)c1 | 128 | 3.07 | > 32600 | 41.7 | > 100000 |
| Cc1sc(C(=O)Nc2cc(Cl)cc(Cl)c2)nc1-c1ccc(F)cc1 | 69.2 | 1.25 | 2920 | 55.4 | 3650 |
| O=C(Nc1ccc(OC(F)F)cc1)c1nc(-c2cccc(Cl)c2)cs1 | 55.7 | 1.04 | 4500 | 53.5 | 4690 |
| CC(=O)Nc1ccc(-c2csc(C(=O)Nc3cc(Cl)cc(Cl)c3)n2)cc1 | 167 | 242 | > 413 | 0.7 | > 100000 |
| O=C(Nc1cc(Cl)cc(Cl)c1)c1nc(-c2ccc([N+](=O)[O-])cc2)cs1 | > 100000 | 27.4 | 1400 | > 3650 | 38400 |
| O=C(Nc1cc(Cl)cc(Cl)c1)c1nc(-c2cccc(F)c2)cs1 | 264 | 2.51 | 1880 | 105 | 4720 |
| Nc1ccc(-c2csc(C(=O)Nc3cc(Cl)cc(Cl)c3)n2)cc1 | 962 | 142 | 58.7 | 6.8 | 8340 |
| NC(=O)c1cccc(-c2csc(C(=O)Nc3ccc(C(F)(F)F)cc3)n2)c1 | 44.2 | 2.18 | 2640 | 20.2 | 5770 |
| NC(=O)c1ccc(-c2csc(C(=O)Nc3cc(Cl)cc(Cl)c3)n2)cc1 | > 100000 | 7.97 | > 1250 | > 12500 | > 10000 |
| O=C(Nc1cc(Cl)cc(Cl)c1)c1nc(-c2ccc(F)cc2)cs1 | 277 | 1.42 | 2990 | 195 | 4240 |
| Cc1cccc(-c2csc(C(=O)Nc3cc(Cl)cc(Cl)c3)n2)c1 | 2330 | 43.7 | > 229 | 53.4 | > 10000 |
| O=C(Nc1ccc(C(F)(F)F)cc1)c1nc(-c2ccc(Cl)cc2)cs1 | 69.2 | 0.49 | 510 | 142 | 248 |
| Cc1ccccc1-c1csc(C(=O)Nc2cc(Cl)cc(Cl)c2)n1 | 266 | 62 | 9.7 | 4.3 | 601 |
| CCc1sc(C(=O)Nc2cc(Cl)cc(Cl)c2)nc1-c1ccc(F)cc1 | 226 | 101 | > 990 | 2.2 | > 100000 |
| O=C(Nc1ccc(Cl)cc1Cl)c1nc(-c2ccccc2F)cs1 | 197 | 2.23 | 63.6 | 88.3 | 142 |
| O=C(Nc1ccc(C(F)(F)F)cc1)c1nc(-c2ccc(F)cc2)cs1 | 346 | 1.07 | 567 | 323 | 608 |
| O=C(Nc1cc(Cl)cc(Cl)c1)c1nc(-c2ccc(Cl)cc2)cs1 | 386 | 1.45 | 912 | 266 | 1330 |

| Structure (SMILES) | IC50 (Cytochrome P450 1A1) [nM] | IC50 (Cytochrome P450 1B1) [nM] | Ratio IC50 (Homo sapiens [1]) | Ratio IC50 (Homo sapiens [2]) | IC50 (Cytochrome P450 1A2) [nM] |
| --- | --- | --- | --- | --- | --- |
| O=C(Nc1ccc(Cl)cc1Cl)c1nc(-c2cccc(F)c2)cs1 | 149 | 1.92 | 1240 | 77.4 | 2380 |
| CC(C)c1ccc(-c2csc(C(=O)Nc3cc(Cl)cc(Cl)c3)n2)cc1 | 456 | 276 | 34.5 | 1.7 | 9540 |
| Cc1sc(C(=O)Nc2ccc(C(F)(F)F)cc2)nc1-c1cccc(F)c1 | 168 | 2.12 | 1100 | 79.2 | 2330 |
| Cc1sc(C(=O)Nc2cc(Cl)cc(Cl)c2)nc1-c1cccc(Cl)c1 | 43.1 | 1.71 | > 5850 | 25.2 | > 10000 |
| N#Cc1ccc(-c2csc(C(=O)Nc3cc(Cl)cc(Cl)c3)n2)cn1 | 72 | 11.5 | 481 | 6.2 | 5550 |
| O=C(Nc1ccc(I)cc1)c1nc(-c2ccc(F)cc2)cs1 | 127 | 3.97 | 162 | 31.9 | 641 |
| O=C(Nc1cc(Cl)cc(Cl)c1)c1nc(-c2ccccc2Cl)cs1 | 203 | 7.95 | 67.6 | 25.6 | 537 |
| Cc1sc(C(=O)Nc2ccc(OC(F)F)cc2)nc1-c1cccc(F)c1 | 188 | 3.04 | 889 | 61.9 | 2700 |
| O=C(Nc1ccc(I)cc1)c1nc(-c2cccc(F)c2)cs1 | 150 | 1.44 | 225 | 104 | 324 |
| N#Cc1ccc(-c2csc(C(=O)Nc3ccc(OC(F)F)cc3)n2)cc1 | 113 | 0.99 | > 101000 | 114 | > 100000 |
| O=C(Nc1ccc(OC(F)F)cc1)c1nc(-c2ccc(Cl)cc2)cs1 | 58.3 | 0.9 | 368 | 65.1 | 330 |
| Cc1ccc(-c2csc(C(=O)Nc3cc(Cl)cc(Cl)c3)n2)cc1 | 566 | 10.3 | 1430 | 55.1 | 14700 |
| O=C(Nc1ccc(C(F)(F)F)cc1)c1nc(-c2cccc(F)c2)cs1 | 123 | 0.29 | 1470 | 426 | 422 |
| N#Cc1cccc(-c2csc(C(=O)Nc3ccc(C(F)(F)F)cc3)n2)c1 | 21.4 | 2.93 | > 34100 | 7.3 | > 100000 |
| O=C(Nc1ccc(OC(F)F)cc1)c1nc(-c2cccc(F)c2)cs1 | 143 | 0.02 | 34400 | 7170 | 688 |
| O=C(Nc1cc(Cl)cc(Cl)c1)c1nc(-c2ccc(O)cc2)cs1 | 758 | 41.6 | 967 | 18.2 | 40300 |
| O=C(Nc1ccc(F)cc1F)c1nc(-c2ccc(F)cc2)cs1 | 404 | 0.93 | 230 | 437 | 213 |
| COc1ccc(-c2csc(C(=O)Nc3cc(Cl)cc(Cl)c3)n2)cc1 | > 100000 | 220 | 77.6 | > 454 | 17100 |
